We go through seven compounds from US20260138973A1, “SUBSTITUTED PYRIDINES FOR USE IN TREATING OR PREVENTING INFLAMMATORY DISEASES OR DISEASES ASSOCIATED WITH AN UNDESIRABLE IMMUNE RESPONSE” (SITRYX THERAPEUTICS LIMITED, priority 2022, published 2026).

Broadly, the EC50 is the concentration at which the effect is half-maximal. For orientation: IC50 means the concentration that gives 50% inhibition.

Each structure is given as a SMILES string. Structures can show the parent of a compound that is named as a salt. Where two headings read alike, the source gives them in different places.

Data set [1] deals with NRF2. Nature of the data set: DiscoverX PathHunter NRF2 translocation assay +/-GSH in U2OS cells. The format is cell-based. As to conditions: for EC50: U2OS PathHunter cells, 6 hours, read-out: NRF2 activation EC50; for NRF2 activation Emax: normalised to DMF high control. On the procedure: Potency and efficacy of compounds of formula (I) against the target of interest to activate NRF2 (nuclear factor erythroid 2-related factor 2) were determined using the PathHunter NRF2 translocation kit (DiscoverX). The NRF2 translocation assay was run using an engineered recombinant cell line, utilising enzyme fragment complementation to determine activation of the Keap1-NRF2 protein complex and subsequent translocation of NRF2 into the nucleus. Enzyme activity was quantified using a chemiluminescent substrate consumed following the formation of a functional enzyme upon PK-tagged NRF2 translocation into the nucleus.
The assay was run under both +/−GSH (glutathione) conditions to determine the sensitivity of the compounds' NRF2-activating abilities to attenuation by GSH.
Additionally, a defined concentration of DMF was used as the ‘High’ control to normalise test compound activation responses to.
U2OS PathHunter express cells were thawed from frozen prior to plating. Following plating, U2OS cells were incubated for 24 hrs (37° C./5% CO2) in commercial kit provided cell medium.
Following 24 hrs of U2OS incubation, cells were directly treated with an appropriate final concentration of compound, for −GSH conditions or, for +GSH conditions, an intermediate plate containing 6× working concentrations of compound stocks was prepared in a 6 mM working concentration of GSH solution (solubilised in sterile PBS). Following a 30 minute compound-GSH pre-incubation (37° C./5% CO2) for +GSH treatment, plated U2OS cells were incubated with an appropriate final concentration of compound and GSH.
Following compound (+/−GSH) treatment, the U2OS plates were incubated for a further 6 hours (37° C./5% CO2) before detection reagent from the PathHunter NRF2 commercial kit was prepared and added to test plates according to the manufacturer's instructions. Subsequently, the luminescence signal detection was measured in a microplate reader (PHERAstar®, BMG Labtech).
Percentage activation was calculated by normalising the sample data to the high and low controls used within each plate (+/−DMF). Percentage activation/response was then plotted against compound concentration and the 50% activation concentration (EC50) was determined from the plotted concentration-response curve.

The subject of data set [2] is IL-1β. Nature of the data set: THP-1 AlphaLISA IL-1β cytokine inhibition assay (differentiated THP-1 cells, LPS then nigericin). In kind it is cell-based. As to conditions: for IC50: THP-1 cell, PMA-differentiated, LPS 24 hr + nigericin 1 hour; for effectiveness in the IL-1β assay: THP-1 cells, result in words. The procedure: Measuring Inhibitory Effects on IL-1β Cytokine Output from THP-1s
The cytokine inhibition profiles of compounds of formula (I) were determined in a differentiated THP-1 cell assay. All assays were performed in RPMI-1640 growth medium (Gibco), supplemented with 10% fetal bovine serum (FBS; Gibco), 1% penicillin-streptomycin and 1% sodium pyruvate unless specified otherwise. The IL-1β cytokine inhibition assay was run in a background of differentiated THP-1 cells as described below. All reagents described were from Sigma-Aldrich unless specified otherwise. Compounds were prepared as 10 mM DMSO stocks.
THP-1 cells were expanded as a suspension up to 80% confluence in appropriate growth medium. Cells were harvested, suspended, and treated with an appropriate concentration of phorbol 12-myristate 13-acetate (PMA) over a 72 hr period (37° C./5% CO2).
Following 72 hrs of THP-1 cell incubation, cellular medium was removed and replaced with fresh growth media containing 1% of FBS. Working concentrations of compounds were prepared separately in 10% FBS treated growth medium and pre-incubated with the cells for 30 minutes (37° C./5% CO2). Following the 30 minute compound pre-incubation, THP-1s were treated with an appropriate concentration of LPS and the cells were subsequently incubated for a 24 hr period (37° C./5% CO2). An appropriate final concentration of Nigericin was then dispensed into the THP-1 plates and incubated for 1 hour (37° C./5% CO2) before THP-1 supernatants were harvested and collected in separate polypropylene 96-well holding plates.
Reagents from an IL-1β and IL-6 commercial kit (Perkin Elmer) were prepared and run according to the manufacturer's instructions. Subsequently, fluorescence signal detection in a microplate reader was measured (EnVision® Multilabel Reader, Perkin Elmer).
Percentage inhibition was calculated per cytokine by normalising the sample data to the high and low controls used within each plate (+/−LPS respectively). Percentage inhibition was then plotted against compound concentration and the 50% inhibitory concentration (IC50) was determined from the resultant concentration-response curve.

The test system of data set [3] is hepatocytes. Description: Hepatocyte stability assay, mouse. As to conditions: 10 μM compound, 0.5×10^6 cells/mL. The format is in vitro ADME. The source says: (§1) Defrosted cryo-preserved hepatocytes (viability >70%) were used to determine the metabolic stability of a compound via calculation of intrinsic clearance (Clint; a measure of the removal of a compound from the liver in the absence of blood flow and cell binding). Clearance data are particularly important for in vitro work as they can be used in combination with in vivo data to predict the half-life and oral bioavailability of a drug.
(§2) The metabolic stability in hepatocytes assay involves a time-dependent reaction using both positive and negative controls. The cells were pre-incubated at 37° C. then spiked with test compound (and positive control); samples were taken at pre-determined time intervals and were analysed to monitor the change in concentration of the initial drug compound over 60 minutes. A buffer incubation reaction (with no hepatocytes present) acted as a negative control and two cocktail solutions, containing compounds with known high and low clearance values (verapamil/7-hydroxycoumarin and propranolol/diltiazem), acted as positive controls. • 1. The assay was run with a cell concentration of 0.5×10^6 cells/mL in Leibovitz buffer. • 2. All compounds and controls were run in duplicate. • 3. Compound concentration was 10 μM. • 4. All compounds and controls were incubated with both cells and buffer to show turnover was due to hepatic metabolism. • 5. All wells on the incubation plate had 326.7 μL of either cells or buffer added. • 6. Prior to assay, cell and buffer-only incubation plates were preincubated for 10 mins at 37° C. • 7. The assay was initiated by adding compounds, 3.3 μL of 1 mM in 10% DMSO-90% Buffer; final DMSO concentration was 0.1%. • 8. Samples were taken at regular timepoints (0, 5, 10, 20, 40, 60 min) until 60 mins. • 9. Sample volume was 40 μL and was added to 160 μL of crash solvent (acetonitrile with internal standard) and stored on ice. • 10. At the end of the assay, the crash plates were centrifuged at 3500 rpm for 20 mins at 4° C. • 11. 80 μL of clear supernatant was removed and mixed with 80 μL of deionised water before being analysed by LC-MS/MS.
(§3) Raw LC-MS/MS data was exported to, and analysed in, Microsoft Excel for determination of intrinsic clearance. The percentage remaining of a compound was monitored using the peak area of the initial concentration as 100%. Intrinsic clearance and half-life values were calculated using a graph of the natural log of percentage remaining versus the time of reaction in minutes. Half-life (min) and intrinsic clearance (Clint in μL min^−1 10^−6 cells) values were calculated using the gradient of the graph (the elimination rate constant, k) and Equations 1 and 2.

Data set [4] deals with IL-6. Nature of the data set: THP-1 AlphaLISA IL-6 cytokine inhibition assay (differentiated THP-1 cells, LPS then nigericin). In kind it is cell-based. As to conditions: THP-1 cell, PMA-differentiated, LPS 24 hr + nigericin 1 hour. The procedure:
The cytokine inhibition profiles of compounds of formula (I) were determined in a differentiated THP-1 cell assay. All assays were performed in RPMI-1640 growth medium (Gibco), supplemented with 10% fetal bovine serum (FBS; Gibco), 1% penicillin-streptomycin and 1% sodium pyruvate unless specified otherwise. The IL-1β cytokine inhibition assay was run in a background of differentiated THP-1 cells as described below. All reagents described were from Sigma-Aldrich unless specified otherwise. Compounds were prepared as 10 mM DMSO stocks. THP-1 cells were expanded as a suspension up to 80% confluence in appropriate growth medium. Cells were harvested, suspended, and treated with an appropriate concentration of phorbol 12-myristate 13-acetate (PMA) over a 72 hr period (37° C./5% CO2). Following 72 hrs of THP-1 cell incubation, cellular medium was removed and replaced with fresh growth media containing 1% of FBS. Working concentrations of compounds were prepared separately in 10% FBS treated growth medium and pre-incubated with the cells for 30 minutes (37° C./5% CO2). […] Subsequently, fluorescence signal detection in a microplate reader was measured (EnVision® Multilabel Reader, Perkin Elmer). Percentage inhibition was calculated per cytokine by normalising the sample data to the high and low controls used within each plate (+/−LPS respectively).
On the technique in general: Bead proximity is the source of the signal in Alpha formats.

In data set [5] the test system is hepatocytes. Description: Hepatocyte stability assay, human. In kind it is in vitro ADME.
From the text: as §1, §2, §3

Data set [6] can be described thus: Hepatocyte stability assay, mouse. As to conditions: cryopreserved hepatocytes, 10 μM compound, 0.5×10^6 cells/mL, read-out: T½. In kind it is in vitro ADME.
From the text: as §1, §2, §3

Data set [7] is described as follows: Hepatocyte stability assay, human. The format is in vitro ADME. As to conditions: cryopreserved hepatocytes; Human hepatocytes, 10 μM compound, 0.5×10^6 cells/mL; read-out: T½.
From the text: as §1, §2, §3

Setting [8] is: Human hepatocytes, 10 μM compound, 0.5×10^6 cells/mL.

On to `C=C(Cc1nc(-c2ncc(Oc3ccc(F)cc3)cc2Cl)no1)C(=O)O` [Example 4, 2-((3-(3-chloro-5-(4-fluorophenoxy)pyridin-2-yl)-1,2,4-oxadiazol-5-yl)methyl)acrylic acid], for which, in data set [1] (+GSH), the EC50 turned out to be 15.5 µM and the “NRF2 activation Emax” value was 145%. Further, in data set [1] (−GSH), the EC50 worked out at 7.07 µM and the “NRF2 activation Emax” value was determined as 208.56%. The concentration for half-maximal inhibition (IC50) in data set [2] (Homo sapiens) stood at 2.12 µM.
Turning to `C=C(CC(=O)OCCCCCCCC)C(=O)O` [4-octyl itaconate, reference compound], the Clint in data set [3] came out at 351 μL min^−1 10^−6 cells; in data set [5] (setting [8]) it was 401 μL min^−1 10^−6 cells. Further, the T½ in data set [3] and in data set [5] (setting [8]) was 4 min throughout. The IC50 in data set [4] was found to be 19.1 µM; in data set [2], 37.8 µM. The EC50 came out at 28.9 µM in data set [1] (+GSH) and 22.1 µM in data set [1] (−GSH). Moreover, the “NRF2 activation Emax” value was determined as 148% in data set [1] (+GSH) and 165% in data set [1] (−GSH).
For the compound `C=C(Cc1nc(-c2ccc(OCCCC)cn2)no1)C(=O)O` [Example 2, 2-((3-(5-butoxypyridin-2-yl)-1,2,4-oxadiazol-5-yl)methyl)acrylic acid], the IC50 in data set [2] (Homo sapiens) was > 100 µM. The “effectiveness in the IL-1β assay” value in data set [2] is listed as “not effective”.
As for `C=C(Cc1nc(-c2ccc(OCCCC)nc2)no1)C(=O)O` [Example 1, 2-((3-(6-butoxypyridin-3-yl)-1,2,4-oxadiazol-5-yl)methyl)acrylic acid], in data set [1] (+GSH), the concentration giving a half-maximal response (EC50) is 19.5 µM and the “NRF2 activation Emax” value came to 130%. Further, in data set [1] (−GSH), the EC50 stood at 20.8 µM and the “NRF2 activation Emax” value is recorded as 192.5%. In addition, the IC50 in data set [2] (Homo sapiens) was > 100 µM. Moreover, the “effectiveness in the IL-1β assay” value in data set [2] was “not effective”.
As for `C=C(Cc1nc(-c2ncc(OCCCC)cc2Cl)no1)C(=O)O` [Example 3, 2-((3-(5-butoxy-3-chloropyridin-2-yl)-1,2,4-oxadiazol-5-yl)methyl)acrylic acid], the Clint in data set [3] turned out to be 133 μL min^−1 10^−6 cells; in data set [5] (setting [8]) it was 7.18 μL min^−1 10^−6 cells. Further, the half-life at 10 μM turned out to be 9.27 min in data set [6] and 181 min in data set [7]. For the same compound, the “stability (intrinsic clearance and half-life) compared to 4-octyl itaconate and 2-(2-chlorobenzyl)acrylic acid” value in data set [5] (mouse and/or human cells, result in words) is “more stable”. Also, the EC50 in data set [1] (+GSH) amounted to 11.4 µM; in data set [1] (−GSH), 22.7 µM. The “NRF2 activation Emax” value in data set [1] (+GSH) stood at 78.58%; in data set [1] (−GSH), 172.5%. Moreover, the 50% inhibitory concentration (IC50) in data set [2] (Homo sapiens) was found to be 2.09 µM.
Take `COC(=O)/C=C/C(=O)O` [monomethyl fumarate, reference compound]: the IC50 in data set [4] (Homo sapiens) and in data set [2] (Homo sapiens) was > 100 µM each time.
With `C=C(Cc1ccccc1Cl)C(=O)O` [2-(2-chlorobenzyl)acrylic acid, reference compound], the Clint in data set [3] is listed as 95 μL min^−1 10^−6 cells; in data set [5] (setting [8]), 21 μL min^−1 10^−6 cells. Moreover, the half-life at 10 μM in data set [7] came out at 59 min. In addition, the EC50 in data set [1] (+GSH) and in data set [1] (−GSH) was > 100 µM throughout. In addition, the “NRF2 activation Emax” value was found to be 9% in data set [1] (+GSH) and 2% in data set [1] (−GSH). Also, the concentration for half-maximal inhibition (IC50) in data set [2] (Homo sapiens) is > 100 µM.
